Measurements taken from US20260356856A1, “KRAS G12S AND G12C INHIBITORS” (MIRATI THERAPEUTICS, INC., priority 2023, published 2026).

Experiments:
[1] = target: T1, KRas-mediated phosphorylation of ERK in A549 cells (Homo sapiens, UniProt P01116, G12S); assay: Inhibition of KRas-mediated phosphorylation of ERK (HTRF), A549 cells; format: cell-based; details: HTRF pERK, 3 h incubation
T1 construct: pERK HTRF read-out

KRas G12C = target: T2, KRas G12C (Homo sapiens, UniProt P01116, G12C); assay: KRas binding assay, TR-FRET displacement of Cy5 labelled tracer; details: 60-minute incubation at room temperature, 1% DMSO, pH 7.5
T2 construct: Biotinylated KRas (corresponding to amino acids 1-169, produced at Accelegan Inc.); biotin (biotinylated); purchased Accelegan Inc
Summary of the method: (§1)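 TR-FRET tracer-displacement readout after 60 min at room temperature, using KRas residues 1-169 (biotinylated) with terbium streptavidin and a Cy5 tracer. Buffer: 50 mM HEPES pH 7.5, 5 mM MgCl2, 0.005% Tween-20, 1 mM DTT, 1% DMSO final. IC50 from 4-parameter fit of POC data.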

KRas G12S = target: T3, KRas G12S (Homo sapiens, UniProt P01116, G12S); assay: as above; details: 60-minute incubation at room temperature, 1% DMSO, pH 7.5
T3 construct: Biotinylated KRas (corresponding to amino acids 1-169, produced at Accelegan Inc.); biotin (biotinylated); purchased Accelegan Inc
Summary of the method: as §1

KRas WT = target: T4, KRas WT (Homo sapiens, UniProt P01116); assay: as above; details: 60-minute incubation at room temperature, 1% DMSO, pH 7.5
T4 construct: Biotinylated KRas (corresponding to amino acids 1-169, produced at Accelegan Inc.); biotin (biotinylated); purchased Accelegan Inc
Summary of the method: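 Displacement measured on KRas residues 1-169 (biotinylated, terbium-streptavidin labelled); 1 h, RT; 1% DMSO final; HEPES pH 7.5 / MgCl2 / Tween-20 / DTT. IC50: 4-parameter fit.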

[2] = target: T5, KRas-mediated phosphorylation of ERK in MKN1 cells (Homo sapiens, UniProt P01116); assay: Inhibition of KRas-mediated phosphorylation of ERK (HTRF), MKN1 cells; format: cell-based; details: MKN1 cells (KRas WT); HTRF pERK; 3 h incubation
T5 construct: pERK HTRF read-out
Protocol: Inhibition of KRas Phosphorylation of ERK (HTRF) by Exemplary Compounds of Formula (Ia) or (Ib)
Cisbio HTRF Advanced pERK Assay Catalog #64AERPEH • Cells: MKN1, PSN1 • Procedure: • 1. Day 1: Seed 6,000 cells/well −25 μl/well in 384-well white solid bottom plate; RPM1_10% FBS. Incubate overnight at 37 °C/5% CO2. • 2.

T5 sequence (P01116 1-188 isoform P01116-2): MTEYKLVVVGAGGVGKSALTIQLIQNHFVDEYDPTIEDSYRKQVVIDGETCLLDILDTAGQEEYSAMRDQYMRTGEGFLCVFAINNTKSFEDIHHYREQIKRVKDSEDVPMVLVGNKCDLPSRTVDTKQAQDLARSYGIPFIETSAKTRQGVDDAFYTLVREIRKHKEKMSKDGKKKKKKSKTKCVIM
T4 sequence (P01116 1-169 isoform P01116-2): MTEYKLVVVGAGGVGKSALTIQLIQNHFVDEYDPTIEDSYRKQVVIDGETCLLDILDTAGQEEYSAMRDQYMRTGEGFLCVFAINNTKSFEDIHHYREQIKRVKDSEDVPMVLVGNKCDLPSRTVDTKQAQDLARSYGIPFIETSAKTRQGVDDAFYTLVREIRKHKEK
T2 sequence (P01116 1-169 isoform P01116-2 G12C): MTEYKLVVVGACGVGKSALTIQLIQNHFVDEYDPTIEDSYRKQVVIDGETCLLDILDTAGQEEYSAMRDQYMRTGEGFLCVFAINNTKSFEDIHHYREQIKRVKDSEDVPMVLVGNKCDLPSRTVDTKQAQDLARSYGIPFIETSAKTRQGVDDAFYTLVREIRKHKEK
T3 sequence (P01116 1-169 isoform P01116-2 G12S): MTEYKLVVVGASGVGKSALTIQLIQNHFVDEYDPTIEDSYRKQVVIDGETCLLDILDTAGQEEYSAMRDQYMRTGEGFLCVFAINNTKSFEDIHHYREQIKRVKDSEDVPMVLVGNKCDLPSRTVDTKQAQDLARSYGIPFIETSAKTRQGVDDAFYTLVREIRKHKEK
T1 sequence (P01116 1-188 isoform P01116-2 G12S): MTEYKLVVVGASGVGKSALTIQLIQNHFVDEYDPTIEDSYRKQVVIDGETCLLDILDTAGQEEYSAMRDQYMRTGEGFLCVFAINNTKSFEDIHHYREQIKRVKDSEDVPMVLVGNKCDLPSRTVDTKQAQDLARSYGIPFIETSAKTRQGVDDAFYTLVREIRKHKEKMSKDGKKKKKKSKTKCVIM

| Compound | IC50 [1] [nM] | IC50 (KRas G12C) [nM] | IC50 (KRas G12S) [nM] | IC50 (KRas WT) [nM] | IC50 [2] [nM] |
| --- | --- | --- | --- | --- | --- |
| CCc1c(F)ccc2cc(O)cc(-c3ncc4c(NCC56CC(C(=O)n7ccc(C)n7)(C5)C6)nc(OC[C@@]56CCCN5C[C@H](F)C6)nc4c3F)c12 [Example 92, (3-(((7-(8-ethyl-7-fluoro-3-hydroxynaphthalen-1-yl)-8-fluoro-2-(((2R,7aS)-2-fluorotetrahydro-1H-pyrrolizin-7a(5H)-yl)methoxy)pyrido[4,3-d]pyrimidin-4-yl)amino)methyl)bicyclo[1.1.1]pentan-1-yl)(3-methyl-1H-pyrazol-1-yl)methanone] | 1380 | 3 | 17 | 59 | > 10000 |
| Cc1ccn(C(=O)[C@H]2C[C@H]2CNc2nc(OC[C@@]34CCCN3C[C@H](F)C4)nc3c(F)c(-c4ccc(F)c5sc(N)c(C#N)c45)c(Cl)cc23)n1 [Example 182, 2-amino-4-(6-chloro-8-fluoro-2-(((2R,7aS)-2-fluorotetrahydro-1H-pyrrolizin-7a(5H)-yl)methoxy)-4-((((cis)-2-(3-methyl-1H-pyrazole-1-carbonyl)cyclopropyl)methyl)amino)quinazolin-7-yl)-7-fluorobenzo[b]thiophene-3-carbonitrile] | 179 | 24 | 38 | 35 | 247 |
| CON(C)C(=O)CCCN(C)c1nc(OC[C@@]23CCCN2C[C@H](F)C3)nc2c(F)c(-c3ccc(F)c4sc(N)c(C#N)c34)c(Cl)cc12 [Example 233, 4-((7-(2-amino-3-cyano-7-fluorobenzo[b]thiophen-4-yl)-6-chloro-8-fluoro-2-(((2R,7aS)-2-fluorotetrahydro-1H-pyrrolizin-7a(5H)-yl)methoxy)quinazolin-4-yl)(methyl)amino)-N-methoxy-N-methylbutanamide] | 278 | 6 | 8 | 11 | 83 |
| Cc1ccn(C(=O)[C@@H]2[C@@H]3CCN(c4nc(OC[C@@]56CCCN5C[C@H](F)C6)nc5c(F)c(-c6ccc(F)c7sc(N)c(C#N)c67)c(Cl)cc45)C[C@@H]32)n1 [Example 179, 2-amino-4-(6-chloro-8-fluoro-2-(((2R,7aS)-2-fluorotetrahydro-1H-pyrrolizin-7a(5H)-yl)methoxy)-4-((1S,6R)-7-(3-methyl-1H-pyrazole-1-carbonyl)-3-azabicyclo[4.1.0]heptan-3-yl)quinazolin-7-yl)-7-fluorobenzo[b]thiophene-3-carbonitrile] | 167 | 64 | 42 | 26 | 110 |
| CCc1c(F)ccc2cc(O)cc(-c3ncc4c(N5CCC(OC)(C(=O)n6ccc(C)n6)CC5)nc(OC[C@@]56CCCN5C[C@H](F)C6)nc4c3F)c12 [Example 88, (1-(7-(8-ethyl-7-fluoro-3-hydroxynaphthalen-1-yl)-8-fluoro-2-(((2R,7aS)-2-fluorotetrahydro-1H-pyrrolizin-7a(5H)-yl)methoxy)pyrido[4,3-d]pyrimidin-4-yl)-4-methoxypiperidin-4-yl)(3-methyl-1H-pyrazol-1-yl)methanone] | 589 | 116 | 1060 | 1760 | 8070 |
| CCc1c(F)ccc2cc(O)cc(-c3ncc4c(N5C[C@H]6CC[C@@]6(C(=O)n6ccc(C)n6)C5)nc(OC[C@@]56CCCN5C[C@H](F)C6)nc4c3F)c12 [Example 105, ((1S,5S)-3-(7-(8-ethyl-7-fluoro-3-hydroxynaphthalen-1-yl)-8-fluoro-2-(((2R,7aS)-2-fluorotetrahydro-1H-pyrrolizin-7a(5H)-yl)methoxy)pyrido[4,3-d]pyrimidin-4-yl)-3-azabicyclo[3.2.0]heptan-1-yl)(3-methyl-1H-pyrazol-1-yl)methanone] | > 10000 | 35 | 50 | 58 | 517 |
